Results published in the supplement of paper PMC10307832.

Tests used:
Experiment in all cases: relative viability (nuclei count vs DMSO), 5 days (fraction); higher = more cells survive
FG-4592 + Olaparib = compound: Cc1nc(C(=O)NCC(=O)O)c(O)c2ccc(Oc3ccccc3)cc12 [FG-4592] + O=C(c1cc(Cc2n[nH]c(=O)c3ccccc23)ccc1F)N1CCN(C(=O)C2CC2)CC1 [Olaparib] (partner 8 µM)
Procedure, shortened: (§1)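 Medians of duplicate plates are given as relative viability. That measure is the nuclei count in treated wells divided by the count in vehicle wells. Counts were taken on 4× images of lung cancer cell lines in 1536-well plates, 5 days after pin-tool dosing the day after seeding with one drug alone or a fixed anchor-drug dose plus five library-drug doses (not always all listed) in √10 steps.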

IU1-47 + Luminespib = compound: CC1=CC(=C(N1C2=CC=C(C=C2)Cl)C)C(=O)CN3CCCCC3 [IU1-47] + CCNC(=O)c1noc(-c2cc(C(C)C)c(O)cc2O)c1-c1ccc(CN2CCOCC2)cc1 [Luminespib] (partner 0.01 µM)
Procedure, shortened: as §1

IU1-47 + Trametinib = compound: CC1=CC(=C(N1C2=CC=C(C=C2)Cl)C)C(=O)CN3CCCCC3 [IU1-47] + CC(=O)Nc1cccc(-n2c(=O)n(C3CC3)c(=O)c3c(Nc4ccc(I)cc4F)n(C)c(=O)c(C)c32)c1 [Trametinib] (partner 0.02 µM)
Procedure, shortened: as §1

FG-4592 + Pictilisib = compound: Cc1nc(C(=O)NCC(=O)O)c(O)c2ccc(Oc3ccccc3)cc12 [FG-4592] + CS(=O)(=O)N1CCN(Cc2cc3nc(-c4cccc5[nH]ncc45)nc(N4CCOCC4)c3s2)CC1 [Pictilisib] (partner 1 µM)
Procedure, shortened: as §1

Cell Line	relative viability (FG-4592 + Olaparib; first compound 0.08 µM)	relative viability (FG-4592 + Olaparib; first compound 0.253 µM)	relative viability (FG-4592 + Olaparib; first compound 0.8 µM)	relative viability (FG-4592 + Olaparib; first compound 2.53 µM)	relative viability (FG-4592 + Olaparib; first compound 8 µM)	relative viability (IU1-47 + Luminespib; first compound 0.253 µM)	relative viability (IU1-47 + Luminespib; first compound 0.8 µM)	relative viability (IU1-47 + Luminespib; first compound 2.53 µM)	relative viability (IU1-47 + Luminespib; first compound 8 µM)	relative viability (IU1-47 + Trametinib; first compound 0.08 µM)	relative viability (IU1-47 + Trametinib; first compound 0.253 µM)	relative viability (IU1-47 + Trametinib; first compound 0.8 µM)	relative viability (IU1-47 + Trametinib; first compound 2.53 µM)	relative viability (IU1-47 + Trametinib; first compound 8 µM)	relative viability (FG-4592 + Pictilisib; first compound 0.08 µM)	relative viability (FG-4592 + Pictilisib; first compound 0.253 µM)	relative viability (FG-4592 + Pictilisib; first compound 0.8 µM)	relative viability (FG-4592 + Pictilisib; first compound 2.53 µM)	relative viability (FG-4592 + Pictilisib; first compound 8 µM)	relative viability (IU1-47 + Luminespib; first compound 0.08 µM)
NCI-H3122	0.637	0.606	0.681	0.656	0.661	0.08	0.0904	0.108	0.106	0.253	0.287	0.268	0.309	0.222	0.735	0.57	0.511	0.583	0.605	–
PC-3 [JPC-3]	1.1	0.975	–	1.1	1.12	0.695	0.723	0.466	0.603	0.771	0.686	0.73	0.715	0.791	0.717	0.7	0.59	0.764	0.791	0.822
PC-14	0.268	0.289	0.258	0.248	0.302	0.168	0.186	0.151	0.179	0.95	0.771	0.91	1.14	0.723	0.681	0.752	0.756	0.624	0.73	0.185
RERF-LC-KJ	0.853	0.913	0.861	0.996	0.894	1.3	1.34	1.24	1.39	0.845	0.883	0.998	1.1	0.799	0.476	0.539	0.552	0.574	0.477	1.22
SK-LU-1	0.322	0.396	0.491	0.444	0.472	0.197	0.204	0.238	0.207	0.52	0.542	0.543	0.491	0.395	0.436	0.418	0.582	0.55	0.428	0.202
SK-MES-1	0.655	0.624	0.786	0.748	0.66	0.891	0.87	0.897	0.839	0.585	0.606	0.567	0.629	0.584	0.358	0.361	0.318	0.367	0.383	0.965
SW 1573	0.426	0.632	0.597	0.612	0.483	0.179	0.129	0.261	0.23	0.656	0.59	0.683	0.721	0.489	0.504	0.402	0.443	0.56	0.484	0.196
